This passage reports Kd results from paper PMC10540511 (Cellular and molecular life sciences : CMLS, 2023).

Test [1] has as its target T1, CBM98-CBM48 (BoGH13ASus CBM98-CBM48) (Bacteroides ovatus, UniProt A0ABU3ISA0).
T1 sequence (A0ABU3ISA0 22-296): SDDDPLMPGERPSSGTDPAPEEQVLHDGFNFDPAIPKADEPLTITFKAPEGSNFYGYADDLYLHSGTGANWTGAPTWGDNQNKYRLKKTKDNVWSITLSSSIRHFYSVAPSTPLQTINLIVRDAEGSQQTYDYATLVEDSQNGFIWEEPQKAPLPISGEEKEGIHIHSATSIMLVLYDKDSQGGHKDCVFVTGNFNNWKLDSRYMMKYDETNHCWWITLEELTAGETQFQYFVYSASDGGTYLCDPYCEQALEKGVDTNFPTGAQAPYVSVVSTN
The test can be described thus: isothermal titration calorimetry. Type of test: binding. The following applies: read-out: Kd (μM) ± SD, 25 °C, 20 mM HEPES pH 7.0, 100 mM NaCl. On the technique in general: In ITC the heat of successive injections is recorded.

Test [2] concerns the target T2, CBM98 (BoGH13ASus CBM98) (Bacteroides ovatus, UniProt A0ABU3ISA0).
T2 sequence (A0ABU3ISA0 22-143): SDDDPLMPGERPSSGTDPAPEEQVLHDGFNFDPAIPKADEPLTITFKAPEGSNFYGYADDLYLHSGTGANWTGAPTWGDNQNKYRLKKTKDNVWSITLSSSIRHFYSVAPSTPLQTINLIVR
The test can be described thus: isothermal titration calorimetry. Type of test: binding. The following applies: read-out: Kd (μM) ± SD; 25 °C, 20 mM HEPES pH 7.0, 100 mM NaCl.

Setting [3] is: standard-volume instrument, 25 μM protein.

The structures appear in SMILES notation. Where two headings read alike, the source gives them in different places.

Usually Kd stands for the equilibrium constant for the complex coming apart. For the compound `OC[C@H]1O[C@H](O[C@H]2[C@H](O)[C@@H](O)[C@@H](O[C@H]3[C@H](O)[C@@H](O)[C@@H](O[C@H]4[C@H](O)[C@@H](O)[C@@H](O[C@H]5[C@H](O)[C@@H](O)[C@@H](O[C@H]6[C@H](O)[C@@H](O)[C@@H](O[C@H]7[C@H](O)[C@@H](O)C(O)O[C@@H]7CO)O[C@@H]6CO)O[C@@H]5CO)O[C@@H]4CO)O[C@@H]3CO)O[C@@H]2CO)[C@H](O)[C@@H](O)[C@@H]1O` (stereo partly drawn) [G7, maltoheptaose], the Kd in test [1] was 33 ± 9.9 µM; in test [2] it was 32 ± 9.8 µM.
`OC[C@H]1O[C@@H]2O[C@H]3[C@H](O)[C@@H](O)[C@@H](O[C@H]4[C@H](O)[C@@H](O)[C@@H](O[C@H]5[C@H](O)[C@@H](O)[C@@H](O[C@H]6[C@H](O)[C@@H](O)[C@@H](O[C@H]7[C@H](O)[C@@H](O)[C@@H](O[C@H]1[C@H](O)[C@H]2O)O[C@@H]7CO)O[C@@H]6CO)O[C@@H]5CO)O[C@@H]4CO)O[C@@H]3CO` [αCD, α-cyclodextrin]: the Kd in test [1] (setting [3]) worked out at 43 ± 18 µM; in test [2], 42 ± 13 µM.
On the same counts, the results for `OC[C@H]1O[C@@H]2O[C@H]3[C@H](O)[C@@H](O)[C@@H](O[C@H]4[C@H](O)[C@@H](O)[C@@H](O[C@H]5[C@H](O)[C@@H](O)[C@@H](O[C@H]6[C@H](O)[C@@H](O)[C@@H](O[C@H]7[C@H](O)[C@@H](O)[C@@H](O[C@H]8[C@H](O)[C@@H](O)[C@@H](O[C@H]1[C@H](O)[C@H]2O)O[C@@H]8CO)O[C@@H]7CO)O[C@@H]6CO)O[C@@H]5CO)O[C@@H]4CO)O[C@@H]3CO` [βCD, β-cyclodextrin] are 21 ± 1.4 µM and 26 ± 3.8 µM.
